Experimental data as given in patent publication US12492181B2, “Gem-disubstituted piperidine melanocortin subtype-2 receptor (MC2R) antagonists and uses thereof” (Crinetics Pharmaceuticals, Inc., priority 2019, dated 2025).

These compounds were tested against T1, hMC2 receptor (crude hMC2R membranes from CRE-bla-CHO-K1 cells stably expressing hMC2 receptor and hMRAP accessory protein) (Homo sapiens, UniProt Q01718) (assay: hMC2 membrane binding assay ([125I]ACTH (1-39) Tyr23, SPA)). Settings: displacement of 0.2 nM [125I]ACTH (1-39) Tyr23 from hMC2R membranes, 1.5 hours at room temperature; read-out: MC2R binding potency.
T1 construct: crude membrane fractions
Experimental: Crude membrane fractions are prepared from CRE-bla-CHO-K1 cells stably expressing hMC2 receptor and hMRAP accessory protein (Thermo Fisher). The cells are grown to 85-100% confluence on standard tissue culture dishes in GlutaMax DMEM growth media (Gibco) with following additives: 10% dialyzed FBS (Gemini), 0.1 mM NEAA (Gibco), 25 mM HEPES (Gibco), 5 μg/mL blasticidin (Goldbio), 100 μg/mL zeocin (Invitrogen), 600 μg/mL hygromycin (Goldbio). To prepare membranes, cells are scraped and collected in 1× Dulbecco's phosphate buffered saline (Corning) and then pelleted at 1000 RPM's. The cell pellet is reconstituted in membrane preparation buffer (20 mM HEPES, 6 mM MgCl2 and 1 mM EGTA, protease inhibitor tablets (Pierce) adjusted to pH 7.4), homogenized using a dounce homogenizer, and the resulting membrane fraction is pelleted by centrifugation at 12,000 RPM's. The membrane pellet is resuspended in membrane preparation buffer, snap freezed and stored at −80° C. for later use.
Binding Assay for hMC2 Antagonists Protocol:
The hMC2 membrane binding assay utilizes the following components: radiolabel [^125I]ACTH (1-39) Tyr23 (PerkinElmer), wheatgerm agglutinin coated PVT SPA beads (PerkinElmer), crude hMC2R membranes, and compounds. Briefly hMC2R membranes are incubated with SPA beads in binding assay buffer (50 mM HEPES, 5 mM MgCl2, 1 mM CaCl2), 0.20% BSA, protease inhibitor tablets (Pierce) adjusted to pH7.4) prior to assay initiation. […] Assay plates are read using a Top Count NXT and Ki values for compounds are determined using a GraphPad Prism 6 non-linear regression analysis.

T1 sequence (Q01718 whole entry): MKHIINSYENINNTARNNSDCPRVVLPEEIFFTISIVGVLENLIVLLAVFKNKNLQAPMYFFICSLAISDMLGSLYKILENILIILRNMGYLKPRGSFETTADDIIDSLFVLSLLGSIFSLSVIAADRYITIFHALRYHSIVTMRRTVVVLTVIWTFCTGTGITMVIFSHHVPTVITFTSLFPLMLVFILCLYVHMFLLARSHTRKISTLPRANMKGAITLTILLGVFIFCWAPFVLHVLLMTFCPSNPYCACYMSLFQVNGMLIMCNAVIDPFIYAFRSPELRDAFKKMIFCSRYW
T1 sequence (Q8TCY5 whole entry partner): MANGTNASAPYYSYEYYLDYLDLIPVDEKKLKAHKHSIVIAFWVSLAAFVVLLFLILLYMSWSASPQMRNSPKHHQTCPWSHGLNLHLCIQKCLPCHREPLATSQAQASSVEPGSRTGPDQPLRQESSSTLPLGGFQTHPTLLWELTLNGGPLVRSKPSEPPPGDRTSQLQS

Row | Ki | Structure (SMILES)
1 | < 10 nM | CN1C[C@H](F)C[C@H]1CNC(=O)C1(c2ccc(-c3cccn3C)nc2)CCN(c2ccc(C(F)(F)F)cc2C#N)CC1 [Compound 1-278, 1-[2-cyano-4-(trifluoromethyl)phenyl]-N-{[(2S,4R)-4-fluoro-1-methylpyrrolidin-2-yl]methyl}-4-[6-(1-methyl-1H-pyrrol-2-yl)pyridin-3-yl]piperidine-4-carboxamide]
2 | 10 to 100 nM | CCOc1ncccc1-c1ccc(C2(C(=O)NCCN)CCN(c3ccc(C(F)(F)F)cc3C#N)CC2)cc1 [Compound 1-3, N-(2-aminoethyl)-1-[2-cyano-4-(trifluoromethyl)phenyl]-4-[4-(2-ethoxypyridin-3-yl)phenyl]piperidine-4-carboxamide]
3 | 10 to 100 nM | CN(C)C1(CNC(=O)C2(c3ccc(-c4cccn4C)nc3)CCN(c3ccc(C(F)(F)F)cc3C#N)CC2)CC1 [Compound 1-263, 1-[2-cyano-4-(trifluoromethyl)phenyl]-N-{[1-(dimethylamino)cyclopropyl]methyl}-4-[6-(1-methyl-1H-pyrrol-2-yl)pyridin-3-yl]piperidine-4-carboxamide]
4 | < 10 nM | CCOc1ncccc1-c1ccc(C2(C(=O)NCCNC)CCN(c3ccc(C(F)(F)F)cc3Cl)CC2)cn1 [Compound 1-225, 1-[2-chloro-4-(trifluoromethyl)phenyl]-4-{2′-ethoxy-[2,3′-bipyridin]-5-yl}-N-[2-(methylamino)ethyl]piperidine-4-carboxamide]
5 | < 10 nM | COc1ncccc1-c1ccc(C2(C(=O)N[C@H]3CCN(C)C3)CCN(c3ccc(C(F)(F)F)cc3Cl)CC2)cn1 [Compound 1-142, 1-[2-chloro-4-(trifluoromethyl)phenyl]-4-{2′-methoxy-[2,3′-bipyridin]-5-yl}-N-[(3S)-1-methylpyrrolidin-3-yl]piperidine-4-carboxamide]
6 | < 10 nM | COc1ccccc1-c1ccc(C2(C(=O)NCCN(C)C)CCN(c3ccc(C(F)(F)F)cc3Cl)CC2)cn1 [Compound 1-255, 1-[2-chloro-4-(trifluoromethyl)phenyl]-N-[2-(dimethylamino)ethyl]-4-[6-(2-methoxyphenyl)pyridin-3-yl]piperidine-4-carboxamide]
7 | < 10 nM | CCOc1ncccc1-c1ccc(C2(C(=O)NC[C@H](C)N(C)C)CCN(c3ccc(C(F)(F)F)cc3C#N)CC2)cn1 [Compound 1-332, 1-[2-cyano-4-(trifluoromethyl)phenyl]-N-[(2S)-2-(dimethylamino)propyl]-4-{2′-ethoxy-[2,3′-bipyridin]-5-yl}piperidine-4-carboxamide]
8 | 10 to 100 nM | CCOc1ncccc1-c1ccc(C2(C(=O)N[C@H]3CCN(C)C3)CCN(c3ncc(C(F)(F)F)cc3Cl)CC2)cn1 [Compound 1-150, 1-[3-chloro-5-(trifluoromethyl)pyridin-2-yl]-4-{2′-ethoxy-[2,3′-bipyridin]-5-yl}-N-[(3S)-1-methylpyrrolidin-3-yl]piperidine-4-carboxamide]
9 | < 10 nM | CCOc1ccccc1-c1ccc(C2(C(=O)N[C@H]3CCN(C)C3)CCN(c3ccc(Cl)cc3C#N)CC2)nn1 [Compound 1-134, 1-(4-chloro-2-cyanophenyl)-4-[6-(2-ethoxyphenyl)pyridazin-3-yl]-N-[(3S)-1-methylpyrrolidin-3-yl]piperidine-4-carboxamide]
10 | < 10 nM | CCOc1ncccc1-c1ncc(C2(C(=O)NCCN(C)C)CCN(c3ccc(C(F)(F)F)cc3C#N)CC2)cc1F [Compound 1-308, 1-[2-cyano-4-(trifluoromethyl)phenyl]-N-[2-(dimethylamino)ethyl]-4-{2′-ethoxy-3-fluoro-[2,3′-bipyridin]-5-yl}piperidine-4-carboxamide]
11 | < 10 nM | CCOc1ncccc1-c1cnc(C2(C(=O)N[C@H]3CCN(C)C3)CCN(c3ccc(C(F)(F)F)cc3C#N)CC2)cn1 [Compound 1-58, 1-[2-cyano-4-(trifluoromethyl)phenyl]-4-[5-(2-ethoxypyridin-3-yl)pyrazin-2-yl]-N-[(3S)-1-methylpyrrolidin-3-yl]piperidine-4-carboxamide]
12 | < 10 nM | COc1ccccc1-c1ncc(C2(C(=O)N[C@@H]3CCN(C)C3)CCN(c3ccc(C(F)(F)F)cc3C#N)CC2)cc1F [Compound 1-126, 1-[2-cyano-4-(trifluoromethyl)phenyl]-4-[5-fluoro-6-(2-methoxyphenyl)pyridin-3-yl]-N-[(3R)-1-methylpyrrolidin-3-yl]piperidine-4-carboxamide]
13 | < 10 nM | CCOc1ncccc1-c1ccc(C2(C(=O)N[C@H]3CCN(C)C3)CCN(c3ccc(C(F)(F)F)cc3C#N)CC2)cn1 [Compound 1-11, 1-[2-cyano-4-(trifluoromethyl)phenyl]-4-{2′-ethoxy-[2,3′-bipyridin]-5-yl}-N-[(3S)-1-methylpyrrolidin-3-yl]piperidine-4-carboxamide]
14 | < 10 nM | COc1ccccc1-c1ccc(C2(C(=O)N[C@@H]3CN(C)C[C@H]3F)CCN(c3ccc(C(F)(F)F)cc3C#N)CC2)cn1 [Compound 1-243, 1-[2-cyano-4-(trifluoromethyl)phenyl]-N-[(3R,4R)-4-fluoro-1-methylpyrrolidin-3-yl]-4-[6-(2-methoxyphenyl)pyridin-3-yl]piperidine-4-carboxamide]
15 | < 10 nM | COc1ccccc1-c1ccc(C2(NC(=O)[C@@H]3CCN(C)C3)CCN(c3ccc(C(F)(F)F)cc3C#N)CC2)cn1 [Compound 2-60, (3R)—N-{1-[2-cyano-4-(trifluoromethyl)phenyl]-4-[6-(2-methoxyphenyl)pyridin-3-yl]piperidin-4-yl}-1-methylpyrrolidine-3-carboxamide]
16 | < 10 nM | CN1CC[C@H](NC(=O)C2(c3ccc(-c4cccn4C)nc3)CCN(c3ccc(C(F)(F)F)cc3F)CC2)C1 [Compound 1-173, 1-[2-fluoro-4-(trifluoromethyl)phenyl]-4-[6-(1-methyl-1H-pyrrol-2-yl)pyridin-3-yl]-N-[(3S)-1-methylpyrrolidin-3-yl]piperidine-4-carboxamide]
17 | < 10 nM | CCOc1ncccc1-c1ccc(C2(C(=O)N[C@@H]3CCN(C)C3)CCN(c3ccc(C(F)(F)F)cc3C#N)CC2)nn1 [Compound 1-57, 1-[2-cyano-4-(trifluoromethyl)phenyl]-4-[6-(2-ethoxypyridin-3-yl)pyridazin-3-yl]-N-[(3R)-1-methylpyrrolidin-3-yl]piperidine-4-carboxamide]
18 | 10 to 100 nM | CN1CC[C@@H](NC(=O)C2(c3ccc(-c4cc(F)cc(F)c4)nc3)CCN(c3ccc(C(F)(F)F)cc3C#N)CC2)C1 [Compound 1-65, 1-[2-cyano-4-(trifluoromethyl)phenyl]-4-[6-(3,5-difluorophenyl)pyridin-3-yl]-N-[(3R)-1-methylpyrrolidin-3-yl]piperidine-4-carboxamide]
19 | < 10 nM | COc1c(F)cccc1-c1ccc(C2(C(=O)N[C@@H]3CCN(C)C3)CCN(c3ccc(C(F)(F)F)cc3C#N)CC2)cn1 [Compound 1-82, 1-[2-cyano-4-(trifluoromethyl)phenyl]-4-[6-(3-fluoro-2-methoxyphenyl)pyridin-3-yl]-N-[(3R)-1-methylpyrrolidin-3-yl]piperidine-4-carboxamide]
20 | < 10 nM | CCOc1ncccc1-c1ccc(C2(C(=O)N[C@H]3CCN(C)C3)CCN(c3ccc(C#N)cc3C#N)CC2)cn1 [Compound 1-40, 1-(2,4-dicyanophenyl)-4-{2′-ethoxy-[2,3′-bipyridin]-5-yl}-N-[(3S)-1-methylpyrrolidin-3-yl]piperidine-4-carboxamide]
21 | 10 to 100 nM | Cn1cccc1-c1ccc(C2(C(=O)N[C@@H]3C[C@H]3N)CCN(c3ccc(C(F)(F)F)cc3C#N)CC2)cn1 (racemic) [Compound 1-259, rac-N-[(1R,2R)-2-aminocyclopropyl]-1-[2-cyano-4-(trifluoromethyl)phenyl]-4-[6-(1-methyl-1H-pyrrol-2-yl)pyridin-3-yl]piperidine-4-carboxamide]
22 | < 10 nM | CCOc1ncccc1-c1ccc(C2(C(=O)N[C@H]3CCN(C)C3)CCN(c3ccc(C(F)(F)F)cc3Cl)CC2)cn1 [Compound 1-141, 1-[2-chloro-4-(trifluoromethyl)phenyl]-4-{2′-ethoxy-[2,3′-bipyridin]-5-yl}-N-[(3S)-1-methylpyrrolidin-3-yl]piperidine-4-carboxamide]
23 | 10 to 100 nM | Cn1cccc1-c1ccc(C2(C(=O)N[C@H]3C[C@H](N)C3)CCN(c3ccc(C(F)(F)F)cc3C#N)CC2)cn1 [Compound 1-234, 1-[2-cyano-4-(trifluoromethyl)phenyl]-4-[6-(1-methyl-1H-pyrrol-2-yl)pyridin-3-yl]-N-[(1R,3R)-3-aminocyclobutyl]piperidine-4-carboxamide]

Row | Structure (SMILES) | Ki
24 | COc1ccccc1-c1ccc(C2(C(=O)N[C@H]3C[C@H]4CC[C@@H]3N4C)CCN(c3ccc(C(F)(F)F)cc3C#N)CC2)cn1 (racemic) [Compound 1-252, rac-1-[2-cyano-4-(trifluoromethyl)phenyl]-4-[6-(2-methoxyphenyl)pyridin-3-yl]-N-[(1S,2S,4R)-7-methyl-7-azabicyclo[2.2.1]heptan-2-yl]piperidine-4-carboxamide] | 10 to 100 nM
